Reference: patent US6759538B2, “Substituted diphenyl heterocycles useful for treating HCV infection” (priority 2001, dated 2004)

Molecular target: HCV replicon
Assay: HCV replicon assay (luciferase)
Format: cell-based, Hepatitis C virus (HCV)
Settings: 5-2 Luc replicon cells, 24 hours with compound, luciferase emission; first symbol of Replicon/Western
Excerpt: In one embodiment, the inhibitory activity of the compounds can be confirmed in a replicon assay that assesses the ability of a test compound to block or inhibit HCV replication in replicon cells. One example of a suitable replicon assay is the liver cell-line Huh 7-based replicon assay described in Lohmann et al., 1999, Science 285:110-113. A specific example of this replicon assay which utilizes luciferase translation is provided in the Examples Section. In one embodiment of this assay, the amount of test compound that yields a 50% reduction in translation as compared to a control cell (IC50) may be determined.
The inhibitory activity of certain exemplary compounds of the invention was confirmed using an HCV replicon assay. The HCV replicon can include such features as the HCV 5′ untranslated region including the HCV IRES, the HCV 3′ untranslated region, selected HCV genes encoding HCV polypeptides, selectable markers, and a reporter gene such as luciferase, GFP, etc. In the assay, actively dividing 5-2 Luc replicon-comprising cells (obtained from Rolf Bartenschlager; see Lohmann et al., 1999, Science 285:110-113) were seeded at a density of between about 5,000 and 7,500 cells/well onto 96 well plates (about 90 μl of cells per well) and incubated at 37° C. and 5% CO2 for 24 hours. Then, the test compound (in a volume of about 10 μl) was added to the wells at various concentrations and the cells were incubated for an additional 24 hours before luciferase assay. The media was aspirated from each well and Bright-Glo (Promega, Madison, Wis.) luciferase assay reagents were added to each well according to the manufacturer's instructions. Briefly, the Bright-Glo reagent was diluted 1:1 with PBS and 100 μl of diluted reagent was added to each well. After 5 min of incubation at room temperature, luciferin emission was quantified with a luminometer. In this assay, the amount of test compound that yielded a 50% reduction in luciferase emission (IC50) was determined.

| SMILES | IC50 [µM] |
| --- | --- |
| O=C(Nc1cccc(-c2cc(-c3c(Cl)cccc3C3CCCC3)no2)c1)C(Cl)Cl [Compound 97, 2,2-Dichloro-N-[3-[3-(2-chloro-6-cyclopentylphenyl)-5-isoxazolyl]phenyl] Acetamide] | ≤ 10 |
| CN1CCN(c2cccc(Cl)c2-c2cc(-c3cccc(NC(=O)C(Cl)Cl)c3)on2)CC1 [Compound 99, 2,2-Dichloro-N-[3-[3-[2-chloro-6-(4-methylpiperazino)phenyl]-5-isoxazolyl]phenyl] Acetamide] | ≤ 10 |
| CCCCc1cccc(Cl)c1-c1cc(-c2cccc(NC(=O)C(Cl)Cl)c2)on1 [Compound 103, 2,2-Dichloro-N-[3-[3-(2-chloro-6-n-butylphenyl)-5-isoxazolyl]phenyl] Acetamide] | ≤ 10 |
| O=C(Nc1cccc(-c2cc(-c3c(C4CCCC4)cccc3C(F)(F)F)no2)c1)C(Cl)Cl [Compound 105, 2,2-Dichloro-N-[3-[3-(2-cyclopentyl-6-trifluoromethylphenyl)-5-isoxazolyl]phenyl] Acetamide] | ≤ 10 |
| O=C(Nc1ccc(S(=O)(=O)NN2CCOCC2)c(-c2cc(-c3c(Cl)cccc3Cl)no2)c1)C(Cl)Cl [Compound 107, 2,2-Dichloro-N-[3-[3-(2,6-dichlorophenyl)-5-isoxazolyl]-4-(N-morpholinosulfamoyl)-phenyl] Acetamide] | ≤ 10 |
| CN1CCN(c2cccc(C(F)(F)F)c2-c2cc(-c3cccc(NC(=O)C(Cl)Cl)c3)on2)CC1 [Compound 109, 2,2-Dichloro-N-[3-[3-[2-trifluoromethyl-6-(4-methylpiperazino)phenyl]-5-isoxazolyl]-phenyl] Acetamide] | ≤ 10 |
| O=C(Nc1cccc(-c2cc(-c3c(Cl)cccc3C3CCCCC3)no2)c1)C(Cl)Cl [Compound 111, 2,2-Dichloro-N-[3-[3-(2-chloro-6-cyclohexylphenyl)-5-isoxazolyl]phenyl] Acetamide] | ≤ 10 |
| O=C(Nc1cccc(-c2cc(-c3ccccc3OC(F)(F)F)no2)c1)C(Cl)Cl [Compound 113, 2,2-Dichloro-N-[3-[3-(2-trifluoromethoxyphenyl)-5-isoxazolyl]phenyl] Acetamide] | ≤ 10 |
| COC(=O)c1ccccc1-c1cc(-c2cccc(NC(=O)C(Cl)Cl)c2)on1 [Compound 115, 2,2-Dichloro-N-[3-[3-(2-carbomethoxy)phenyl-5-isoxazolyl]phenyl] Acetamide] | ≤ 10 |
| O=C(Nc1cccc(-c2cc(-c3c(Cl)cccc3-n3ccnc3)no2)c1)C(Cl)Cl [Compound 117, 2,2-Dichloro-N-[3-[3-[2-chloro-6-(N-imidazolyl)phenyl]-5-isoxazolyl]phenyl] Acetamide] | ≤ 10 |
| CC(C)Oc1ccccc1-c1cc(-c2cccc(NC(=O)C(Cl)Cl)c2)on1 [Compound 119, 2,2-Dichloro-N-[3-[3-(2-isopropyloxyphenyl)-5-isoxazolyl]phenyl] Acetamide] | ≤ 10 |
| CC(C)c1cccc(C(C)C)c1-c1cc(-c2cccc(NC(=O)C(Cl)Cl)c2)on1 [Compound 121, 2,2-Dichloro-N-[3-[3-(2,6-diisopropylphenyl)-5-isoxazolyl]phenyl] Acetamide] | ≤ 10 |
| O=C(Nc1cccc(-c2cc(-c3ccccc3-c3ccccc3)no2)c1)C(Cl)Cl [Compound 123, 2,2-Dichloro-N-[3-[3-(2-phenyl)phenyl-5-isoxazolyl]phenyl] Acetamide] | ≤ 10 |
| O=C(Nc1cccc(-c2cc(-c3c(Cl)cc(OCCN4CCCCC4)cc3Cl)no2)c1)C(Cl)Cl [Compound 125, 2,2-Dichloro-N-[3-[3-[2,6-dichloro-4-(N-piperidinylethylenoxy)phenyl]-5-isoxazolyl]-phenyl] Acetamide] | ≤ 10 |
| COc1ccc(NC(=O)C(Cl)Cl)cc1-c1cc(-c2c(Cl)cccc2Cl)no1 [Compound 127, 2,2-Dichloro-N-[3-[3-(2,6-dichlorophenyl)-5-isoxazolyl]-4-methoxyphenyl] Acetamide] | ≤ 10 |
| O=C(Nc1cccc(-c2cc(-c3ccccc3C3CCCC3)no2)c1)C(Cl)Cl [Compound 129, 2,2-Dichloro-N-[3-[3-(2-cyclopentylphenyl)-5-isoxazolyl]phenyl] Acetamide] | ≤ 10 |

| SMILES | IC50 [µM] |
| --- | --- |
| CN(C)CCN(C)c1cccc(Cl)c1-c1cc(-c2cccc(NC(=O)C(Cl)Cl)c2)on1 [Compound 131, 2-Dichloro-N-[3-[3-[2-chloro-6-(N,N-dimethylethylene-N′-methylamino)phenyl]-5-isoxazolyl]-phenyl] Acetamide] | ≤ 10 |
| O=C(Nc1cccc(-c2cc(-c3c(Cl)ccc(Cl)c3Cl)no2)c1)C(Cl)Cl [Compound 137, 2,2-Dichloro-N-[3-[3-(2,3,6-trichlorophenyl)-5-isoxazolyl]phenyl] Acetamide] | > 10 |
| O=C(O)c1ccc(Cl)c(-c2cc(-c3cccc(NC(=O)C(Cl)Cl)c3)on2)c1Cl [Compound 139, 2,2-Dichloro-N-[3-[3-(3-carboxy-2,6-dichlorophenyl)-5-isoxazolyl]phenyl] Acetamide] | > 10 |
| O=C(Nc1cccc(-c2cc(-c3cc(C(F)(F)F)ccc3Cl)no2)c1)C(Cl)Cl [Compound 141, 2,2-Dichloro-N-[3-[3-(2-chloro-5-trifluoromethylphenyl)-5-isoxazolyl]phenyl] Acetamide] | > 10 |
| O=C(Nc1cccc(-c2cc(-c3c(Cl)cc(Cl)cc3OCCN3CCOCC3)no2)c1)C(Cl)Cl [Compound 143, 2,2-Dichloro-N-[3-[3-[2,4-dichloro-6-(N-morpholino-2-ethyleneoxy)phenyl]-5-isoxazolyl]-phenyl] Acetamide] | > 10 |
| O=C(Nc1cccc(-c2cc(-c3c(Cl)cccc3Cl)no2)c1)C(F)F [Compound 145, 2,2-Difluoro-N-[3-[3-(2,6-dichlorophenyl)-5-isoxazolyl]phenyl] Acetamide] | > 10 |
| Cc1ccc(F)c(-c2cc(-c3cccc(NC(=O)C(Cl)Cl)c3)on2)c1F [Compound 149, 2,2-Dichloro-N-[3-[3-(2,6-difluoro-3-methylphenyl)-5-isoxazolyl]phenyl] Acetamide] | > 10 |
| CCOC(=O)C1CCN(c2cccc(Cl)c2-c2cc(-c3cccc(NC(=O)C(Cl)Cl)c3)on2)CC1 [Compound 151, 2,2-Dichloro-N-[3-[3-[2-chloro-6-(4-carboethoxypiperidino)phenyl]-5-isoxazolyl]-phenyl] Acetamide] | > 10 |
| CS(=O)(=O)c1cccc(F)c1-c1cc(-c2cccc(NC(=O)C(Cl)Cl)c2)on1 [Compound 153, 2,2-Dichloro-N-[3-[3-(2-fluoro-6-methylsulfonyl)phenyl-5-isoxazolyl]phenyl] Acetamide] | > 10 |
| O=C(O)c1ccccc1-c1cc(-c2cccc(NC(=O)C(Cl)Cl)c2)on1 [Compound 157, 2,2-Dichloro-N-[3-[3-(2-carboxyphenyl)-5-isoxazolyl]phenyl] Acetamide] | > 10 |
| O=C(Nc1cccc(-c2cc(-c3ccccc3OCc3ccccc3)no2)c1)C(Cl)Cl [Compound 161, 2,2-Dichloro-N-[3-[3-(2-benzyloxyphenyl)-5-isoxazolyl]phenyl] Acetamide] | > 10 |
| Cc1ccc(-c2cc(-c3c(Cl)cccc3Cl)no2)cc1NC(=O)C(Cl)Cl [Compound 165, 2,2-Dichloro-N-[3-[3-(2,6-dichlorophenyl)-5-isoxazolyl]-6-methylphenyl] Acetamide] | > 10 |
| Cc1c(NC(=O)C(Cl)Cl)cccc1-c1cc(-c2c(Cl)cccc2Cl)no1 [Compound 167, 2,2-Dichloro-N-[3-[3-(2,6-dichlorophenyl)-5-isoxazolyl]-2-methylphenyl] Acetamide] | > 10 |
| O=C(Nc1cc(-c2cc(-c3c(Cl)cccc3Cl)no2)ccc1N1CCOCC1)C(Cl)Cl [Compound 169] | > 10 |
| O=C(Nc1cc(-c2cc(-c3c(Cl)cccc3Cl)no2)ccc1OCCN1CCOCC1)C(Cl)Cl [Compound 171, 2,2-Dichloro-N-[3-[3-(2,6-dichlorophenyl)-5-isoxazolyl]-6-(N-morpholino-2-ethyleneoxy)phenyl] Acetamide] | > 10 |
| COc1ccc(-c2cc(-c3c(Cl)cccc3Cl)no2)cc1NC(=O)C(Cl)Cl [Compound 173, 2,2-Dichloro-N-[3-[3-(2,6-dichlorophenyl)-5-isoxazolyl]-6-methoxyphenyl] Acetamide] | ≤ 10 |
